Reference: US20160244845A1, “METHOD FOR DETERMINING THE PROGNOSIS OF PANCREATIC CANCER” (AB SCIENCE, priority 2013, published 2016)

Experiments:
[1] = system: pancreatic cancer patients; conditions: cited from earlier work
[2] = system: pancreatic cancer patients; experiment: Clinical phase III study AB07012 (ancillary pharmacogenomic study): overall survival of pancreatic cancer patients; conditions: ACOX1 subgroup, DCt cut-off <=3.05; 95% CI [0.10; 0.51]; p-value 0.001

**Q.** For Folfirinox, which “survival rates after 2 years compared to gemcitabine alone” value ([1]; pancreatic cancer patients) is on record?
**A.** no benefit

**Q.** What about the median overall survival ([1]; pancreatic cancer patients, folfirinox: recent phase III study) of the same compound?
**A.** 11.1 months

**Q.** For Cc1ccc(NC(=O)c2ccc(CN3CCN(C)CC3)cc2)cc1Nc1nc(-c2cccnc2)cs1 [Masitinib], which “hazard ratio (masitinib treatment effect with respect to placebo)” value [2] is on record?
**A.** 0.23

**Q.** With C#Cc1cccc(Nc2ncnc3cc(OCCOC)c(OCCOC)cc23)c1 [Erlotinib] as the compound, how does the “overall survival (OS) compared to gemcitabine treatment alone” value ([1]; in combination treatment with gemcitabine) read?
**A.** therapeutic benefit
